# In patent US20240018125A1, “CYCLIC ISOTHIOUREA DERIVATIVES AS CXCR4 MODULATORS” (ERMIUM THERAPEUTICS, priority 2020, published 2024):
# Counter-ions that a name gives are not always drawn.
# System: peripheral blood mononuclear cells (PBMCs) from healthy donors
# Experiment: IFN production by R848-activated PBMCs, quantified with twINNE luciferase reporter cell line
# Assay type: cell-based, human
# Conditions: Homo sapiens, PBMC; read-out: IC50 of anti-inflammatory activity (IFN production by activated PBMCs)
# Outline: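 Functional IFN was quantified by luciferase output from the twINNE ISRE-reporter line after 24 h on conditioned supernatants. Those supernatants came from human PBMCs (4.10^6/mL) pre-treated with compound and then stimulated for 24 h with 5 μg/mL resiquimod. IC50s were fitted by nonlinear variable-slope regression.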
row,SMILES,IC50 [µM]
1,"Brc1ccc2c(c1)CN1C(CSC3=NCc4ccccc4N3)=CSC1=N2 [Example 69, 7-bromo-3-(((1,4-dihydroquinazolin-2-yl)thio)methyl)-5H-thiazolo[2,3-b]quinazoline dihydrochloride]",≤ 10
2,"CN1CCCC1CCSC1=NCC(Cc2ccccc2)N1 (centres unmarked) [Example 57, 5-benzyl-2-((2-(1-methylpyrrolidin-2-yl)ethyl)thio)-4,5-dihydro-1H-imidazole dihydrochloride]",> 32
3,"CC1(C)CN=C(SCCCCN2CCCC2)N1 [Example 172, 4,4-dimethyl-2-((4-(pyrrolidin-1-yl)butyl)thio)-4,5-dihydro-1H-imidazole dihydrochloride]",> 32
4,"CC1(C)N=C(SCC2=CSC3=NC(Cc4ccccc4)CN23)Nc2ccccc21 (centres unmarked) [Example 87, 6-benzyl-3-(((4,4-dimethyl-1,4-dihydroquinazolin-2-yl)thio)methyl)-5,6-dihydroimidazo[2,1-b]thiazole dihydrochloride]",≤ 10
5,"CCCCC1CN=C(SCC2=CSC3=Nc4ccccc4CN23)N1 (centres unmarked) [Example 29, 3-(((5-butyl-4,5-dihydro-1H-imidazol-2-yl)thio)methyl)-5H-thiazolo[2,3-b]quinazoline dihydrochloride]",≤ 10
6,"CC1(C)N=C(SCCCCN2CCCC2)Nc2ccccc21 [Example 160, 4,4-dimethyl-2-((4-(pyrrolidin-1-yl)butyl)thio)-1,4-dihydroquinazoline dihydrochloride]",> 32
7,"COc1ccc(CC2(C)CN=C(SCCN3CCCC3)N2)cc1 (centres unmarked) [Example 183, 5-(4-methoxybenzyl)-5-methyl-2-((2-(pyrrolidin-1-yl)ethyl)thio)-4,5-dihydro-1H-imidazole dihydrochloride]",> 32
8,"Clc1ccc2c(c1)CN1C(CSC3=NCC4CCCCN34)=CSC1=N2 (centres unmarked) [Example 49, 7-chloro-3-(((1,5,6,7,8,8a-hexahydroimidazo[1,5-a]pyridin-3-yl)thio)methyl)-5H-thiazolo[2,3-b]quinazoline dihydrochloride]",≤ 10
9,"C1=C(CSC2=NCc3ccccc3N2)N2CC(Cc3cccs3)N=C2S1 (centres unmarked) [Example 63, 3-(((3,4-dihydroquinazolin-2-yl)thio)methyl)-6-(thiophen-2-ylmethyl)-5,6-dihydroimidazo[2,1-b]thiazole dihydrochloride]",≤ 10
10,"Fc1ccc(CC2CN3C(CSC4=NCc5ccccc5N4)=CSC3=N2)cc1 (centres unmarked) [Example 196, 3-(((1,4-dihydroquinazolin-2-yl)thio)methyl)-6-(4-fluorobenzyl)-5,6-dihydroimidazo[2,1-b]thiazole dihydrochloride]",≤ 10
11,"CCN1CCC(SC2=NCc3ccccc3N2)C1 (centres unmarked) [Example 104, 2-((1-ethylpyrrolidin-3-yl)thio)-1,4-dihydroquinazoline dihydrochloride]",≤ 10
12,"c1ccc2c(c1)CCN=C(SCCN1CCc3ccccc31)N2 [Example 192, 2-((2-(indolin-1-yl)ethyl)thio)-4,5-dihydro-1H-benzo[d][1,3]diazepine hydrochloride]",10 to 32
13,"C1=C(CSC2=NCc3ccccc3N2)N2Cc3ccccc3N=C2S1 [Example 12, 3-(((1,4-dihydroquinazolin-2-yl)thio)methyl)-5H-thiazolo[2,3-b]quinazoline dihydrochloride]",≤ 10
14,"c1ccc2c(c1)CN=C(SCCN1CCOCC1)N2 [Example 155, 4-(2-((1,4-dihydroquinazolin-2-yl)thio)ethyl)morpholine dihydrochloride]",> 32
15,"c1ccc(C2CCCN2CCSC2=NCc3ccccc3N2)cc1 (centres unmarked) [Example 128, 2-((2-(2-phenylpyrrolidin-1-yl)ethyl)thio)-1,4-dihydroquinazoline dihydrochloride]",≤ 10
16,"C(CCN1CCCC1)CSC1=NCCN1 [Example 175, 2-((4-(pyrrolidin-1-yl)butyl)thio)-4,5-dihydro-1H-imidazole dihydrochloride]",> 32
17,"CC1(C)N=C(SCCN2CCCC2)Nc2ccccc21 [Example 78, 4,4-dimethyl-2-((2-(pyrrolidin-1-yl)ethyl)thio)-1,4-dihydroquinazoline dihydrochloride]",> 32
18,"CC1(C)CN2C(CSC3=NCc4ccccc4N3)=CSC2=N1 [Example 3, 3-(((3,4-dihydroquinazolin-2-yl)thio)methyl)-6,6-dimethyl-5,6-dihydroimidazo[2,1-b]thiazole dihydrochloride]",≤ 10
19,"c1ccc2c(c1)CCN=C(SCc1ccncc1)N2 [Example 188, 2-((pyridin-4-ylmethyl)thio)-4,5-dihydro-1H-benzo[d][1,3]diazepine dihydrochloride]",10 to 32
20,"Clc1ccc2c(c1)CN1C(CSC3=NCC(Cc4cccs4)N3)=CSC1=N2 (centres unmarked) [Example 64, 7-chloro-3-(((5-(thiophen-2-ylmethyl)-4,5-dihydro-1H-imidazol-2-yl)thio)methyl)-5H-thiazolo[2,3-b]quinazoline dihydrochloride]",≤ 10
21,"Clc1ccc(C2CN3C(CSC4=NCc5ccccc5N4)=CSC3=N2)cc1 (centres unmarked) [Example 14, 6-(4-chlorophenyl)-3-(((3,4-dihydroquinazolin-2-yl)thio)methyl)-5,6-dihydroimidazo[2,1-b]thiazole dihydrochloride]",≤ 10

row,SMILES,IC50 [µM]
1,"c1ccc2c(c1)CN=C(SCCN1CCCC1)NC2 [Example 186, 3-((2-(pyrrolidin-1-yl)ethyl)thio)-2,5-dihydro-1H-benzo[e][1,3]diazepine dihydrochloride]",> 32
2,"c1cncc(CSC2=NCc3ccccc3CN2)c1 [Example 193, 3-((pyridin-3-ylmethyl)thio)-2,5-dihydro-1H-benzo[e][1,3]diazepine]",> 32
3,"c1ccc2c(c1)CN(CCSC1=NCc3ccccc3N1)C2 [Example 71, 2-((2-(isoindolin-2-yl)ethyl)thio)-3,4-dihydroquinazoline dihydrochloride]",10 to 32
4,"CCCCN1C(SCC2=CSC3=NC(Cc4ccccc4)CN23)=NCc2ccccc21 (centres unmarked) [Example 99, 6-benzyl-3-(((1-butyl-1,4-dihydroquinazolin-2-yl)thio)methyl)-5,6-dihydroimidazo[2,1-b]thiazole dihydrochloride]",≤ 10
5,"Clc1ccc2c(c1)CN1C(CSC3=NCCN3Cc3ccccc3)=CSC1=N2 [Example 47, 3-(((1-benzyl-4,5-dihydro-1H-imidazol-2-yl)thio)methyl)-7-chloro-5H-thiazolo[2,3-b]quinazoline dihydrochloride]",≤ 10
6,"CC1(C)N=C(SCC2=CSC3=Nc4cccc(F)c4CN23)Nc2ccccc21 [Example 73, 3-(((4,4-dimethyl-1,4-dihydroquinazolin-2-yl)thio)methyl)-6-fluoro-5H-thiazolo[2,3-b]quinazoline dihydrochloride]",> 32
7,"CN1CCC(SC2=NC(C)(C)c3ccccc3N2)C1 (centres unmarked) [Example 98, 4,4-dimethyl-2-((1-methylpyrrolidin-3-yl)thio)-1,4-dihydroquinazoline dihydrochloride]",> 32
8,"O=C1CCCN1CCSC1=NCc2ccccc2N1 [Example 135, 1-(2-((1,4-dihydroquinazolin-2-yl)thio)ethyl)pyrrolidin-2-one hydrochloride]",> 32
9,"Fc1ccc2c(c1)NC(SCCCCN1CCCC1)=NC2 [Example 151, 7-fluoro-2-((4-(pyrrolidin-1-yl)butyl)thio)-1,4-dihydroquinazoline dihydrochloride]",≤ 10
10,"Clc1ccc2c(c1)CN1C(CSC3=NCc4cc(Br)ccc4N3)=CSC1=N2 [Example 67, 3-(((6-bromo-1,4-dihydroquinazolin-2-yl)thio)methyl)-7-chloro-5H-thiazolo[2,3-b]quinazoline dihydrochloride]",10 to 32
11,"C1CCC2NC(SCCN3CCCC3)=NCC2C1 (centres unmarked) [Example 184, 2-((2-(pyrrolidin-1-yl)ethyl)thio)-1,4,4a,5,6,7,8,8a-octahydroquinazoline dihydrochloride]",> 32
12,"C(CCN1CCCC1)CSC1=NCC2(CC2)N1 [Example 185, 5-((4-(pyrrolidin-1-yl)butyl)thio)-4,6-diazaspiro[2.4]hept-5-ene dihydrochloride]",> 32
13,"CC1(C)CN=C(SCCCCN2CCCC2)NC1 [Example 179, 5,5-dimethyl-2-((4-(pyrrolidin-1-yl)butyl)thio)-1,4,5,6-tetrahydropyrimidine dihydrochloride]",> 32
14,"CN1CCC(SC2=NCc3ccccc3N2)C1 (centres unmarked) [Example 100, 2-((1-methylpyrrolidin-3-yl)thio)-1,4-dihydroquinazoline dihydrochloride]",≤ 10
15,"Clc1ccc2c(c1)CN1C(CSC3=NCc4cc(Cl)ccc4N3)=CSC1=N2 [Example 44, 7-chloro-3-(((6-chloro-1,4-dihydroquinazolin-2-yl)thio)methyl)-5H-thiazolo[2,3-b]quinazoline dihydrochloride]",> 32
16,"C1CCN(CCSC2=NCC3(CC3)N2)C1 [Example 187, 5-((2-(pyrrolidin-1-yl)ethyl)thio)-4,6-diazaspiro[2.4]hept-5-ene dihydrochloride]",≤ 10
17,"Clc1cccc2c1CN=C(SCC1=CSC3=NC(Cc4ccccc4)CN13)N2 (centres unmarked) [Example 118, 6-benzyl-3-(((5-chloro-1,4-dihydroquinazolin-2-yl)thio)methyl)-5,6-dihydroimidazo[2,1-b]thiazole dihydrochloride]",≤ 10
18,"c1ccc2c(c1)CCN=C(SCCN1CCCC1)N2 [Example 182, 2-((2-(pyrrolidin-1-yl)ethyl)thio)-4,5-dihydro-1H-benzo[d][1,3]diazepine dihydrochloride]",10 to 32
19,"c1ccc2c(c1)CN=C(SC1CCCC[C@H]1N1CCCC1)N2 (stereo partly drawn) [Example 148, 2-(((2R)-2-(pyrrolidin-1-yl)cyclohexyl)thio)-1,4-dihydroquinazoline dihydrochloride]",≤ 10
20,"Brc1cccc2c1N=C1SC=C(CSC3=NCc4ccccc4N3)N1C2 [Example 85, 9-bromo-3-(((1,4-dihydroquinazolin-2-yl)thio)methyl)-5H-thiazolo[2,3-b]quinazoline dihydrochloride]",≤ 10
